# Measurements from patent US9687571B2, “Stabilization of radiopharmaceutical compositions using ascorbic acid” (Lantheus Medical Imaging, Inc., priority 2009, dated 2017).
# Assays:
# [1] = Acid/base and solution properties of ascorbic acid; assay type: physicochemical; conditions: aqueous dose solution, pH 5.8
# [2] = Effect of ascorbic acid concentration on radiochemical purity (Example 4); assay type: physicochemical; conditions: pH 5.8, FIG. 3
# Experimental: The integrity of a radiopharmaceutical is measured by the radiochemical purity (RCP) of the radiolabeled compound using ITLC or more preferably HPLC. The advantage of using HPLC is that radio-impurities caused by radiolytic degradation can be separated from the radiopharmaceutical under certain chromatographic conditions. […] The radiopharmaceutical compositions of this invention are effective in maintaining the stability of samples for up to ten hours.
# This example describes the effect of ascorbic acid concentration on radiochemical purity. In this example, the radiochemical purity (RCP) of the ^18F-labeled drug product (2-tert-butyl-4-chloro-5-[4-(2-[^18F]fluoro-ethoxymethyl)-benzyloxy]-2H-pyridazin-3-one) was monitored for solutions having an ascorbic acid concentration range from 200 mg/mL (saturation level) to 20 mg/mL, at pH 5.8.
saturation level (concentration) [1],radiochemical purity (RCP) level ([2]; ascorbic acid 200 to 50 mg/mL),SMILES,radiochemical purity (RCP) level ([2]; ascorbic acid 20 mg/mL)
200 mg/mL,,O=C1O[C@H]([C@@H](O)CO)C(O)=C1O [Ascorbic acid],
,do not significantly change,CC(C)(C)n1ncc(OCc2ccc(COCC[18F])cc2)c(Cl)c1=O [2-tert-butyl-4-chloro-5-[4-(2-[^18F]fluoro-ethoxymethyl)-benzyloxy]-2H-pyridazin-3-one],"increase in impurities (i.e., lower RCP level)"
